Source: patent publication US8940731B2, “Substituted pyridyl amide compounds as modulators of the histamine H3 receptor” (Janssen Pharmaceutica NV, priority 2006, dated 2015)
pKi: −log10 of the molar value. Structures can show the parent of a compound that is named as a salt. Where two headings read alike, the source gives them in different places.

How the values were obtained:
human H3 receptor = target: T1, human H3 receptor (Homo sapiens, UniProt Q9Y5N1); assay: Cyclic AMP Accumulation (human H3 receptor); assay type: cell-based; details: SK-N-MC subline expressing reporter construct and human H3 receptor; average
T1 construct: expressed in transfected cells; host or cells: SK-N-MC sublines with a reporter construct
Source text: Sublines of SK-N-MC cells were created that expressed a reporter construct and either the human or rat H3 receptor.

Rat H3 = Rat H3 (Rattus norvegicus, UniProt Q9QYN8); assay: H3 Receptor Binding (Rat); details: rat brain membranes without cerebellum, 0.8 nM N-[3H]-α-methylhistamine, 60 min at 25° C.; average of the results obtained
Procedure: H3 Receptor Binding (Rat)
A rat brain without cerebellum (Zivic Laboratories Inc., Pittsburgh, Pa.) was homogenized in 50 mM Tris-HCl/5 mM EDTA and centrifuged at 1,000 rpm for 5 min. The supernatant was removed and recentrifuged at 15,000 rpm for 30 min. Pellets were rehomogenized in 50 mM Tris/5 mM EDTA (pH 7.4). Membranes were incubated with 0.8 nM N-[^3H]-α-methylhistamine plus/minus test compounds for 60 min at 25° C. and harvested by rapid filtration over GF/C glass fiber filters (pretreated with 0.3% polyethylenimine) followed by four washes with buffer. Nonspecific binding was defined in the presence of 100 μM histamine.

[1] = target: T2, cloned human H3 receptors (Homo sapiens, UniProt Q9Y5N1); assay: H3 Receptor Binding (Human)
T2 construct: expressed in transfected cells
Procedure: H3 Receptor Binding (Human)
Binding of compounds to the cloned human H3 receptors, stably expressed in SK-N-MC cells, was performed as described by Barbier, A. J. et al. (Br. J. Pharmacol. 2004, 143(5), 649-661).

[2] = cloned human H3 receptors stably expressed in SK-N-MC cells, average of the results obtained, read-out: Human H3 Ki
[3] = bromo-pyridine intermediates (Step A), value given in the synthesis, read-out: Assay 1 (Human H3): Ki

Chain of Rat H3 (Q9QYN8 1-397 isoform Q9QYN8-3): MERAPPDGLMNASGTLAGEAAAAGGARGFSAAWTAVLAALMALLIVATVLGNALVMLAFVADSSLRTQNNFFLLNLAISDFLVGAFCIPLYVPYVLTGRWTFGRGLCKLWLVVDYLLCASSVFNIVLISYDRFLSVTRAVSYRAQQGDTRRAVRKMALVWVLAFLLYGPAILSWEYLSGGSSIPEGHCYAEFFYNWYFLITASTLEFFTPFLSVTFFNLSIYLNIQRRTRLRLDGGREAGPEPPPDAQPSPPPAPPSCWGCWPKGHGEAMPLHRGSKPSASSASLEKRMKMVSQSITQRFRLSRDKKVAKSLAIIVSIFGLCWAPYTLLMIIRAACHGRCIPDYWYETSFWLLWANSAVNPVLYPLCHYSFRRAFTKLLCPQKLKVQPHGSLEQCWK
T2 sequence (Q9Y5N1 whole entry): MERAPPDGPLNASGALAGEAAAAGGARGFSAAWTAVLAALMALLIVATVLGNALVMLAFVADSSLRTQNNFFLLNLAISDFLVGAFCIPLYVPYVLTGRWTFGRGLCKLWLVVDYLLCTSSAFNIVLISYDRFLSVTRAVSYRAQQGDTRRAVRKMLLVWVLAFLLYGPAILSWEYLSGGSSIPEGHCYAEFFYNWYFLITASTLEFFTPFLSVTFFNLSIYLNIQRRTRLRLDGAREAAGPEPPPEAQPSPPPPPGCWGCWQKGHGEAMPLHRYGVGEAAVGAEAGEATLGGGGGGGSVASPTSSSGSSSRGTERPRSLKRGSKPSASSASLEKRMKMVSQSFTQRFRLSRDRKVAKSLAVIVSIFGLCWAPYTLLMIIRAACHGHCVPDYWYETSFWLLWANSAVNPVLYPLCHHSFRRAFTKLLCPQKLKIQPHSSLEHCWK
T1 sequence (Q9Y5N1 whole entry): as above

In the case of `N#Cc1cccc(Oc2ccc(C(=O)N3CCCN(C4CC4)CC3)cn2)c1` [Example 11, 3-[5-(4-Cyclopropyl-[1,4]diazepane-1-carbonyl)-pyridin-2-yloxy]-benzonitrile], the “Human pA2” value (human H3 receptor) was 8.53, the pKi (Rat H3) was 6.35 and the pKi [1, 2] was 8.15.

`O=C(c1ccc(Oc2ccc(F)cc2)nc1)N1CCCN(C2CC2)CC1` [Example 18, (4-Cyclopropyl-[1,4]diazepan-1-yl)-[6-(4-fluoro-phenoxy)-pyridin-3-yl]-methanone] gave a pKi (Rat H3) of 7.17 and a pKi [1, 2] of 8.70.

Molecule `O=C(c1ccc(Oc2ccccc2)nc1)N1CCCN(C2CCC2)CC1` [Example 21, (4-Cyclobutyl-[1,4]diazepan-1-yl)-(6-phenoxy-pyridin-3-yl)-methanone] has a pKi (Rat H3) of 7.80 and a pKi [1, 2] of 8.70.

Molecule `O=C(c1ccc(Oc2ccccc2)nc1)N1CCCN(C2CC2)CC1` [Example 13, (4-Cyclopropyl-[1,4]diazepan-1-yl)-(6-phenoxy-pyridin-3-yl)-methanone] has a pKi (Rat H3) of 7.27 and a pKi [1, 2] of 8.22.

Molecule `O=C(c1ccc(Oc2cccc(Cl)c2)nc1)N1CCCN(C2CC2)CC1` [Example 23, [6-(3-Chloro-phenoxy)-pyridin-3-yl]-(4-cyclopropyl-[1,4]diazepan-1-yl)-methanone] has a pKi (Rat H3) of 7.15 and a pKi [1, 2] of 8.52.

`Cc1cc(Oc2ccc(C(=O)N3CCCN(C4CC4)CC3)nc2C#N)ccc1Cl` [Example 57, 3-(4-Chloro-3-methyl-phenoxy)-6-(4-cyclopropyl-[1,4]diazepane-1-carbonyl)-pyridine-2-carbonitrile] was tested, and the pKi (Rat H3) was 6.88 and the pKi [1, 2] was 8.52.

`O=C(c1ccc(Oc2cccc(F)c2)nc1)N1CCCN(C2CC2)CC1` [Example 37, (4-Cyclopropyl-[1,4]diazepan-1-yl)-[6-(3-fluoro-phenoxy)-pyridin-3-yl]-methanone] gave a pKi (Rat H3) of 6.89 and a pKi [1, 2] of 8.30.

`N#Cc1cccc(Oc2ccc(C(=O)N3CCCN(C4CCC4)CC3)cn2)c1` [Example 20, 3-[5-(4-Cyclobutyl-[1,4]diazepane-1-carbonyl)-pyridin-2-yloxy]-benzonitrile] gave a pKi (Rat H3) of 7.77 and a pKi [1, 2] of 9.00.

`O=C(c1ccc(Oc2ccc(F)c(F)c2)nc1)N1CCCN(C2CC2)CC1` [Example 27, (4-Cyclopropyl-[1,4]diazepan-1-yl)-[6-(3,4-difluoro-phenoxy)-pyridin-3-yl]-methanone] was tested, and the pKi (Rat H3) was 7.07 and the pKi [1, 2] was 8.40.

Molecule `CSc1ccc(Oc2ccc(C(=O)N3CCCN(C4CCC4)CC3)cn2)cc1` [Example 105, (4-Cyclobutyl-[1,4]diazepan-1-yl)-[6-(4-methylsulfanyl-phenoxy)-pyridin-3-yl]-methanone] has a pKi (Rat H3) of 7.49 and a pKi [1, 2] of 7.96.

`CN1CCCN(C(=O)c2ccc(Oc3ccc(F)cc3)nc2)CC1` [Example 92, [6-(4-Fluoro-phenoxy)-pyridin-3-yl]-(4-methyl-[1,4]diazepan-1-yl)-methanone] was tested, and the pKi [1, 2] was 6.60.

With `O=C(c1cccc(Br)n1)N1CCCN(C2CCC2)CC1` [(6-Bromo-pyridin-2-yl)-(4-cyclobutyl-[1,4]diazepan-1-yl)-methanone] the pKi [1, 3] was 7.48.

For `N#Cc1nc(C(=O)N2CCCN(C3CC3)CC2)ccc1Oc1ccc(Cl)c(Cl)c1` [Example 58, 6-(4-Cyclopropyl-[1,4]diazepane-1-carbonyl)-3-(3,4-dichloro-phenoxy)-pyridine-2-carbonitrile], the pKi [1, 2] was 8.00.

With `O=C(c1ccc(Oc2cc(F)cc(F)c2)nc1)N1CCCN(C2CCC2)CC1` [Example 36, (4-Cyclobutyl-[1,4]diazepan-1-yl)-[6-(3,5-difluoro-phenoxy)-pyridin-3-yl]-methanone] the pKi (Rat H3) was 7.52 and the pKi [1, 2] was 9.00.

With `CSc1ccc(Oc2ccc(C(=O)N3CCCN(C4CC4)CC3)cn2)cc1C` [Example 41, (4-Cyclopropyl-[1,4]diazepan-1-yl)-[6-(3-methyl-4-methylsulfanyl-phenoxy)-pyridin-3-yl]-methanone] the pKi (Rat H3) was 7.12 and the pKi [1, 2] was 8.40.

`CC(C)CN1CCN(C(=O)c2ccc(Oc3ccc(F)cc3)nc2)CC1` [Example 93, [6-(4-Fluoro-phenoxy)-pyridin-3-yl]-(4-isobutyl-piperazin-1-yl)-methanone] gave a pKi [1, 2] of 7.24.

`CC(C)N1CCN(C(=O)c2ccc(Oc3ccc(F)c(F)c3)nc2)CC1` [Example 28, [6-(3,4-Difluoro-phenoxy)-pyridin-3-yl]-(4-isopropyl-piperazin-1-yl)-methanone] gave a pKi [1, 2] of 7.89.

`O=C(c1cccc(Br)n1)N1CCCN(C2CC2)CC1` [(6-Bromo-pyridin-2-yl)-(4-cyclopropyl-[1,4]diazepan-1-yl)-methanone] showed a pKi [1, 3] of 6.37.

In the case of `Cc1cc(Oc2cccc(C(=O)N3CCCN(C4CCC4)CC3)n2)ccc1Cl` [Example 48, [6-(4-Chloro-3-methyl-phenoxy)-pyridin-2-yl]-(4-cyclobutyl-[1,4]diazepan-1-yl)-methanone trifluoroacetic acid salt], the pKi [1, 2] was 7.17.

In the case of `CC(C)N1CCCN(C(=O)c2cccc(Oc3ccc(Cl)c(Cl)c3)n2)CC1` [Example 46, [6-(3,4-Dichloro-phenoxy)-pyridin-2-yl]-(4-isopropyl-[1,4]diazepan-1-yl)-methanone], the pKi [1, 2] was 6.69.

`Cc1cc(Oc2cccc(C(=O)N3CCCN(C(C)C)CC3)n2)ccc1Cl` [Example 49, [6-(4-Chloro-3-methyl-phenoxy)-Pyridin-2-yl]-(4-isopropyl-[1,4]diazepan-1-yl)-methanone trifluoroacetic acid salt] was tested, and the pKi [1, 2] was 6.94.

Molecule `CC(C)N1CCCN(C(=O)c2ccc(Br)cn2)CC1` [(5-Bromo-pyridin-2-yl)-(4-isopropyl-[1,4]diazepan-1-yl)-methanone] has a pKi [1, 3] of 6.71.

`CC(C)N1CCN(C(=O)c2ccc(Oc3cccc(Cl)c3)nc2)CC1` [Example 4, [6-(3-Chloro-phenoxy)-pyridin-3-yl]-(4-isopropyl-piperazin-1-yl)-methanone] gave a pKi [1, 2] of 7.25.

Molecule `NC(=O)c1nc(C(=O)N2CCCN(C3CC3)CC2)ccc1Oc1cccnc1` [Example 63, 6-(4-Cyclopropyl-[1,4]diazepane-1-carbonyl)-3-(pyridin-3-yloxy)-pyridine-2-carboxylic acid amide] has a pKi [1, 2] of 7.49.

`CC(C)N1CCN(C(=O)c2ccc(Oc3cccc(C#N)c3)nc2)CC1` [Example 7, 3-[5-(4-Isopropyl-piperazine-1-carbonyl)-pyridin-2-yloxy]-benzonitrile] was tested, and the pKi [1, 2] was 7.24.

`CC(C)N1CCN(C(=O)c2ccc(Oc3ccccc3)nc2)CC1` [Example 5, (4-Isopropyl-piperazin-1-yl)-(6-phenoxy-pyridin-3-yl)-methanone] showed a pKi [1, 2] of 7.15.

In the case of `O=C(c1ccc(Oc2ccc(F)cc2F)nc1)N1CCCN(C2CC2)CC1` [Example 32, (4-Cyclopropyl-[1,4]diazepan-1-yl)-[6-(2,4-difluoro-phenoxy)-pyridin-3-yl]-methanone], the pKi (Rat H3) was 7.04 and the pKi [1, 2] was 8.40.

For `O=C(c1ccc(Sc2ccc(F)cc2)cn1)N1CCCN(C2CCC2)CC1` [Example 84, (4-Cyclobutyl-[1,4]diazepan-1-yl)-[5-(4-fluoro-phenylsulfanyl)-pyridin-2-yl]-methanone trifluoroacetic acid salt], the pKi (Rat H3) was 7.43 and the pKi [1, 2] was 8.70.

For `O=C(c1ccc(Br)cn1)N1CCCN(C2CCC2)CC1` [(5-Bromo-pyridin-2-yl)-(4-cyclobutyl-[1,4]diazepan-1-yl)-methanone], the pKi [1, 3] was 7.96.

`CC(C)N1CCN(C(=O)c2cccc(Br)n2)CC1` [(6-Bromo-pyridin-2-yl)-(4-isopropyl-piperazin-1-yl)-methanone] gave a pKi [1, 3] of 5.85.

`CC(C)N1CCN(C(=O)c2ccc(Oc3ccccc3Cl)nc2)CC1` [Example 75, [6-(2-Chloro-phenoxy)-pyridin-3-yl]-(4-isopropyl-piperazin-1-yl)-methanone] was tested, and the pKi [1, 2] was 8.05.

For `O=C(c1ccc(Sc2ccc(Cl)cc2)nc1)N1CCCN(C2CCC2)CC1` [Example 85, [6-(4-Chloro-phenylsulfanyl)-pyridin-3-yl]-(4-cyclobutyl-[1,4]diazepan-1-yl)-methanone], the pKi [1, 2] was 9.00.

Molecule `O=C(c1ccc(Oc2ccc(Cl)c(Cl)c2)cn1)N1CCCN(C2CC2)CC1` [Example 52, (4-Cyclopropyl-[1,4]diazepan-1-yl)-[5-(3,4-dichloro-phenoxy)-pyridin-2-yl]-methanone trifluoroacetic acid salt] has a pKi (Rat H3) of 6.96 and a pKi [1, 2] of 8.40.

`CC(C)N1CCN(C(=O)c2ccc(Oc3ccc(F)cc3)nc2)CC1` [Example 99, [6-(4-Fluoro-phenoxy)-pyridin-3-yl]-(4-isopropyl-piperazin-1-yl)-methanone] showed a pKi [1, 2] of 7.55.

`Cc1cc(Oc2ccc(C(=O)N3CCCN(C(C)C)CC3)cn2)ccc1Cl` [Example 17, [6-(4-Chloro-3-methyl-phenoxy)-pyridin-3-yl]-(4-isopropyl-[1,4]diazepan-1-yl)-methanone] gave a pKi [1, 2] of 8.30.

For `CC(C)N1CCCN(C(=O)c2ccc(Oc3ccc(Cl)c(Cl)c3)cn2)CC1` [Example 50, [5-(3,4-Dichloro-phenoxy)-pyridin-2-yl]-(4-isopropyl-[1,4]diazepan-1-yl)-methanone trifluoroacetic acid salt], the pKi [1, 2] was 7.74.

Molecule `O=C(c1ccc(Oc2ccc(Cl)cc2)nc1)N1CCCN(C2CC2)CC1` [Example 10, [6-(4-Chloro-phenoxy)-pyridin-3-yl]-(4-cyclopropyl-[1,4]diazepan-1-yl)-methanone] has a pKi [1, 2] of 8.00.
